This is an account of results in patent US8399196B2, “Nucleic acid sequencing methods, kits and reagents” (GeneForm Technologies Limited, priority 2003, dated 2013).

This assay addresses T1, Klenow exo- with template-primer (Escherichia coli, UniProt P00582, D355A/E357A).
T1 construct: purchased New England Biolabs
It counts as binding. The note with it: for signal +polymerase + DUpNHPP: 0.3 uM Dye-DUTP conjugate, buffer background subtracted. As to the method:
(1) Dideoxy terminated primer and template were mixed at a ratio of 2:1 (final template concentrations were varied as shown)
(2) DGTP DCTP and DATP was added to a final concentration of 1 mM.
(3) 0.3 uM of Intercalator-Dye-DUTP conjugate was added to the system.
(4) In some samples non-incorporable DUTP (DUPNHPP) was added as shown.
(5) 300 nM Klenow exo- was added
(6) The system was heated to at 37° C.
Where the intercalating dye is conjugated to DNPNHPP or other nonincorporable entities, then the dideoxy terminated primer is unnecessary and will allow sequential sequencing if a limited concentration of native bases are added.
Buffer background subtracted.

Like-named read-outs stand apart in the source and are kept apart here.

T1 sequence (P00582 324-928 D355A/E357A): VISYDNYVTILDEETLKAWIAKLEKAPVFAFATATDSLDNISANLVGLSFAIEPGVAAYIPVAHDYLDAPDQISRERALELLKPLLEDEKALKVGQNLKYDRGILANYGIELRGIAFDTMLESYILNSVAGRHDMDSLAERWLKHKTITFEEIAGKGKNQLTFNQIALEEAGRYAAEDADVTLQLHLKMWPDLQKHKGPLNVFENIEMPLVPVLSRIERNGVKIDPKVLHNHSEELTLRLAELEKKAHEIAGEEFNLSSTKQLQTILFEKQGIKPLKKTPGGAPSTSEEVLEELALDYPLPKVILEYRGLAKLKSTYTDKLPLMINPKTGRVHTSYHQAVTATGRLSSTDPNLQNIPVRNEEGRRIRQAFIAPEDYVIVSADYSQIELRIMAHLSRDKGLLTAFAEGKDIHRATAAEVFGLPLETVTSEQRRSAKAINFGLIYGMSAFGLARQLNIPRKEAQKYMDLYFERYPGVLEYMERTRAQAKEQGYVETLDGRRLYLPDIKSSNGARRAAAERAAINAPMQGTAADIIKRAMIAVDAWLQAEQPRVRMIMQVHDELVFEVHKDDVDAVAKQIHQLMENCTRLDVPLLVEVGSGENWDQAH

As to `O=c1ccn([C@H]2CC(O)[C@@H](COP(=O)(O)NP(=O)(O)OP(=O)(O)O)O2)c(=O)[nH]1` (stereo partly shown) [DUPNHPP], the “signal, T-P + Dye-DUTP + Primer1 + DUPNHPP” value (DUPNHPP added in competition with 0.3 uM Dye-DUTP, DUPNHPP concentration not given) was 320. Moreover, the “signal +polymerase + DUpNHPP” value is, setting by setting: (Template-primer-a 0.015625 uM) 55; (Template-primer-a 0.03125 uM) 114; (Template-primer-a 0.0625 uM) 234; (Template-primer-a 0.125 uM) 438; (Template-primer-a 0.25 uM) 916; (Template-primer-a 0.5 uM) 1802.
